Series [1] in a line: Solubility in Cl free phosphate buffer pH 6.8. The format is physicochemical. To be noted: aqueous buffer; Cl free phosphate buffer (0.067 M) pH 6.8.
Series [2] can be described thus: In-vitro clearance in rat liver microsomes (metabolic stability, compound depletion). For orientation: Liver microsomes are a subcellular fraction often used to study metabolism.

Values after ≈ are worked out from the molar mass of the structure shown. Where only a bound is given, the exact number is not on record here.

As to `CCNC(=O)CCC(=O)O[C@@]1(C#Cc2cccc(C)c2)CCC[C@@H]2[C@H]1CCN2C(=O)OC` [Example 67, (3aR,4S,7aR)-methyl 4-(4-(ethylamino)-4-oxobutanoyloxy)-4-(m-tolylethynyl)octahydro-1H-indole-1-carboxylate], the solubility in series [1] is 123 µg/mL (≈ 279 µM).

Compound `COC(=O)N1CC[C@@H]2[C@H]1CCC[C@]2(C#Cc1cccc(C)c1)OC(=O)[C@@H](N)CC(C)C` [Example 5, (3aR,4S,7aR)-4-((S)-2-Amino-4-methyl-pentanoyloxy)-4-m-tolylethynyl-octahydro-indole-1-carboxylic acid methyl ester] returned a microsomal CLint at 1 μM in series [2] of 48 µL/min/mg.

In series [1], `COC(=O)CCCC(=O)O[C@@]1(C#Cc2cccc(C)c2)CCC[C@@H]2[C@H]1CCN2C(=O)OC` [Example 56, (3aR,4S,7aR)-1-(methoxycarbonyl)-4-(m-tolylethynyl)octahydro-1H-indol-4-yl methyl glutarate] gave a solubility of 97 µg/mL (≈ 220 µM).

On to `CC[C@H](C)[C@H](N)C(=O)O[C@@]1(C#Cc2cccc(C)c2)CCC[C@@H]2[C@H]1CCN2C(=O)OC` [Example 33, (3aR,4S,7aR)-4-((2S,3S)-2-Amino-3-methyl-pentanoyloxy)-4-m-tolylethynyl-octahydro-indole-1-carboxylic acid methyl ester], for which the microsomal CLint at 1 μM in series [2] worked out at 660 µL/min/mg.

The compound `COC(=O)N1CC[C@@H]2[C@H]1CCC[C@]2(C#Cc1cccc(C)c1)OC(=O)Cc1ccccc1` [Example 43, (3aR,4S,7aR)-methyl 4-(2-phenylacetoxy)-4-(m-tolylethynyl)octahydro-1H-indole-1-carboxylate] had an intrinsic clearance (microsomal CLint) at 1 μM in series [2] of 36 µL/min/mg.

`CC[C@H](N)C(=O)O[C@@]1(C#Cc2cccc(C)c2)CCC[C@@H]2[C@H]1CCN2C(=O)OC` [Example 30, (3aR,4S,7aR)-4-((S)-2-Amino-butyryloxy)-4-m-tolylethynyl-octahydro-indole-1-carboxylic acid methyl ester]: the microsomal CLint at 1 μM in series [2] was determined as 375 µL/min/mg.

The compound `COC(=O)N1CC[C@@H]2[C@H]1CCC[C@]2(C#Cc1cccc(C)c1)OC(=O)[C@@H](N)Cc1ccccc1` [Example 31, (3aR,4S,7aR)-4-((S)-2-Amino-3-phenyl-propionyloxy)-4-m-tolylethynyl-octahydro-indole-1-carboxylic acid methyl ester] came in with a microsomal CLint at 1 μM in series [2] of 262 µL/min/mg.

With `COC(=O)N1CC[C@@H]2[C@H]1CCC[C@]2(C#Cc1cccc(C)c1)OC(=O)CC(N)=O` [Example 60, (3aR,4S,7aR)-methyl 4-(3-amino-3-oxopropanoyloxy)-4-(nm-tolylethynyl)octahydro-1H-indole-1-carboxylate], the solubility in series [1] was determined as 110 µg/mL (≈ 276 µM).

For the compound `COC(=O)N1CC[C@@H]2[C@H]1CCC[C@]2(C#Cc1cccc(C)c1)OC(=O)c1ccc(Br)cc1` [Example 48, (3aR,4S,7aR)-methyl 4-(4-bromobenzoyloxy)-4-(m-tolylethynyl)octahydro-1H-indole-1-carboxylate], the microsomal CLint at 1 μM in series [2] was 26 µL/min/mg.

Compound `CN[C@H](C(=O)O[C@@]1(C#Cc2cccc(C)c2)CCC[C@@H]2[C@H]1CCN2C(=O)OC)C(C)C` [Example 36, (3aR,4S,7aR)-4-((S)-3-Methyl-2-methylamino-butyryloxy)-4-m-tolylethynyl-octahydro-indole-1-carboxylic acid methyl ester] showed a microsomal CLint at 1 μM in series [2] of 815 µL/min/mg.

`COC(=O)N1CC[C@@H]2[C@H]1CCC[C@]2(C#Cc1cccc(C)c1)OC(=O)[C@@H](N)CCSC` [Example 6, (3aR,4S,7aR)-4-((S)-2-Amino-4-methylsulfanyl-butyryloxy)-4-m-tolylethynyl-octahydro-indole-1-carboxylic acid methyl ester] yielded a microsomal CLint at 1 μM in series [2] of 51 µL/min/mg.

On to `CCCCCC(=O)O[C@@]1(C#Cc2cccc(C)c2)CCC[C@@H]2[C@H]1CCN2C(=O)OC` [Example 17, (3aR,4S,7aR)-4-Hexanoyloxy-4-m-tolylethynyl-octahydro-indole-1-carboxylic acid methyl ester], for which the solubility in series [1] is less than 2 µg/mL.

Take `CCC[C@H](N)C(=O)O[C@@]1(C#Cc2cccc(C)c2)CCC[C@@H]2[C@H]1CCN2C(=O)OC` [Example 32, (3aR,4S,7aR)-4-((S)-2-Amino-pentanoyloxy)-4-m-tolylethynyl-octahydro-indole-1-carboxylic acid methyl ester]: in series [2], the microsomal CLint at 1 μM is 420 µL/min/mg.

Regarding `CN[C@@H](C)C(=O)O[C@@]1(C#Cc2cccc(C)c2)CCC[C@@H]2[C@H]1CCN2C(=O)OC` [Example 35, (3aR,4S,7aR)-4-((S)-2-Methylamino-propionyloxy)-4-m-tolylethynyl-octahydro-indole-1-carboxylic acid methyl ester], the microsomal CLint at 1 μM in series [2] worked out at 50 µL/min/mg.

Regarding `CCCNC(=O)CCC(=O)O[C@@]1(C#Cc2cccc(C)c2)CCC[C@@H]2[C@H]1CCN2C(=O)OC` [Example 64, (3aR,4S,7aR)-methyl 4-(4-oxo-4-(propylamino)butanoyloxy)-4-(m-tolylethynyl)octahydro-1H-indole-1-carboxylate], in series [1], the solubility came to 33 µg/mL (≈ 72.6 µM).

In series [1], `CCNC(=O)CCCC(=O)O[C@@]1(C#Cc2cccc(C)c2)CCC[C@@H]2[C@H]1CCN2C(=O)OC` [Example 68, (3aR,4S,7aR)-methyl 4-(5-(ethylamino)-5-oxopentanoyloxy)-4-(m-tolylethynyl)octahydro-1H-indole-1-carboxylate] yielded a solubility of 386 µg/mL (≈ 849 µM).

Regarding `CCCC(=O)O[C@@]1(C#Cc2cccc(C)c2)CCC[C@@H]2[C@H]1CCN2C(=O)OC` [Example 15, (3aR,4S,7aR)-4-Butyryloxy-4-m-tolylethynyl-octahydro-indole-1-carboxylic acid methyl ester], the solubility in series [1] amounted to 2 µg/mL (≈ 5.22 µM).

Compound `CCCCC(=O)O[C@@]1(C#Cc2cccc(C)c2)CCC[C@@H]2[C@H]1CCN2C(=O)OC` [Example 22, (3aR,4S,7aR)-4-Pentanoyloxy-4-m-tolylethynyl-octahydro-indole-1-carboxylic acid methyl ester] registered a solubility in series [1] of less than 2 µg/mL.

The compound `COC(=O)N1CC[C@@H]2[C@H]1CCC[C@]2(C#Cc1cccc(C)c1)OC(C)=O` [Example 13, (3aR,4S,7aR)-4-Acetoxy-4-m-tolylethynyl-octahydro-indole-1-carboxylic acid methyl ester] came in with a solubility in series [1] of 12 µg/mL (≈ 33.8 µM).

Turning to `CNC(=O)CC(=O)O[C@@]1(C#Cc2cccc(C)c2)CCC[C@@H]2[C@H]1CCN2C(=O)OC` [Example 61, (3aR,4S,7aR)-methyl 4-(3-(methylamino)-3-oxopropanoyloxy)-4-(m-tolylethynyl)octahydro-1H-indole-1-carboxylate], the solubility in series [1] came to 11 µg/mL (≈ 26.7 µM).

In series [1], `CCCCCCCC(=O)O[C@@]1(C#Cc2cccc(C)c2)CCC[C@@H]2[C@H]1CCN2C(=O)OC` [Example 18] had a solubility of less than 2 µg/mL.

As for `COC(=O)CC(=O)O[C@@]1(C#Cc2cccc(C)c2)CCC[C@@H]2[C@H]1CCN2C(=O)OC` [Example 66, (3aR,4S,7aR)-1-(methoxycarbonyl)-4-(m-tolylethynyl)octahydro-1H-indol-4-yl methyl malonate], the solubility in series [1] was found to be 100 µg/mL (≈ 242 µM).

For the compound `COC(=O)N1CC[C@@H]2[C@H]1CCC[C@]2(C#Cc1cccc(C)c1)OC(=O)CCC(=O)N1CCCC1` [Example 38, (3aR,4S,7aR)-4-(4-Oxo-4-pyrrolidin-1-yl-butyryloxy)-4-m-tolylethynyl-octahydro-indole-1-carboxylic acid methyl ester], in series [1], the solubility turned out to be 27 µg/mL (≈ 57.9 µM).

On to `CNC(=O)CCC(=O)O[C@@]1(C#Cc2cccc(C)c2)CCC[C@@H]2[C@H]1CCN2C(=O)OC` [Example 58, (3aR,4S,7aR)-methyl 4-(4-(methylamino)-4-oxobutanoyloxy)-4-(m-tolylethynyl)octahydro-1H-indole-1-carboxylate], for which the solubility in series [1] stood at 87 µg/mL (≈ 204 µM).

Take `COC(=O)N1CC[C@@H]2[C@H]1CCC[C@]2(C#Cc1cccc(C)c1)OC(=O)CCCC(N)=O` [Example 55, (3aR,4S,7aR)-methyl 4-(5-amino-5-oxopentanoyloxy)-4-(m-tolylethynyl)octahydro-1H-indole-1-carboxylate]: the solubility in series [1] was determined as 93 µg/mL (≈ 218 µM).

In turn, `CCCNC(=O)CCCC(=O)O[C@@]1(C#Cc2cccc(C)c2)CCC[C@@H]2[C@H]1CCN2C(=O)OC` [Example 70, (3aR,4S,7aR)-methyl 4-(5-oxo-5-(propylamino)pentanoyloxy)-4-(m-tolylethynyl)octahydro-1H-indole-1-carboxylate] yielded a solubility in series [1] of 32 µg/mL (≈ 68.3 µM).

In series [1], `COC(=O)N1CC[C@@H]2[C@H]1CCC[C@]2(C#Cc1cccc(C)c1)OC(=O)CCC(=O)N(C)C` [Example 59, (3aR,4S,7aR)-methyl 4-(4-(dimethylamino)-4-oxobutanoyloxy)-4-(m-tolylethynyl)octa hydro-1H-indole-1-carboxylate] had a solubility of less than 2 µg/mL.

Regarding `COC(=O)CCC(=O)O[C@@]1(C#Cc2cccc(C)c2)CCC[C@@H]2[C@H]1CCN2C(=O)OC` [Example 62, ((3aR,4S,7aR)-1-(methoxycarbonyl)-4-(m-tolylethynyl)octahydro-1H-indol-4-ylmethyl succinate], the solubility in series [1] amounted to 164 µg/mL.

In turn, `COCC(=O)O[C@@]1(C#Cc2cccc(C)c2)CCC[C@@H]2[C@H]1CCN2C(=O)OC` [Example 10, (3aR,4S,7aR)-4-(2-Methoxy-acetoxy)-4-m-tolylethynyl-octahydro-indole-1-carboxylic acid methyl ester] registered a solubility in series [1] of 47 µg/mL (≈ 122 µM).

As for `COC(=O)N1CC[C@@H]2[C@H]1CCC[C@]2(C#Cc1cccc(C)c1)OC(=O)CCCC(=O)NC(C)C` [Example 69, (3aR,4S,7aR)-methyl 4-(5-(isopropylamino)-5-oxopentanoyloxy)-4-(m-tolylethynyl)octahydro-1H-indole-1-carboxylate], in series [1], the solubility is 28 µg/mL (≈ 59.8 µM).

As for `CCN(CC)C(=O)CCC(=O)O[C@@]1(C#Cc2cccc(C)c2)CCC[C@@H]2[C@H]1CCN2C(=O)OC` [Example 57, (3aR,4S,7aR)-methyl 4-(4-(diethylamino)-4-oxobutanoyloxy)-4-(m-tolylethynyl)octahydro-1H-indole-1-carboxylate], in series [1], the solubility turned out to be 19 µg/mL (≈ 40.5 µM).

For orientation: solubility means the dissolved amount per volume that the medium holds. Low readings indicate a poorly soluble substance, high ones a readily soluble substance. Usually microsomal CLint stands for the rate of metabolic loss divided by the concentration. Read a high microsomal CLint as rapid turnover.

(Values after patent US9067881B2, “4-tolyl-ethynyl-octahydro-indole-1-ester derivatives” (NOVARTIS AG, priority 2011, dated 2015).)
